According to patent US7998924B2, “Compounds that bind to p185 and methods of using the same” (The Trustees of The University of Pennsylvania, priority 2001, dated 2011):
pKd: −log10 of the molar value. Entries after “also recorded” stand apart in the source; their conditions may differ. Like-named read-outs stand apart in the source and are kept apart here. Positions of bridges follow the written chain, without caps; N, C: chain ends. Residues, ends and D or L forms follow the SMILES beside them. No end group written: not given here.

Experiments:
[1] = Peptide solubility in PBS buffer at 1 mg/mL; assay type: physicochemical; settings: pH 7.4, 1 mg/mL
Method: These peptides could be readily dissolved in the PBS buffer, pH 7.4, at 1 mg/mL concentration without adjustment of pH.

HER2 receptor = target: T1, HER2 receptor (Homo sapiens, UniProt P04626); test: Biacore (surface plasmon resonance) binding of peptides to immobilized HER2; settings: for kon: read-out: binding to HER2 kon
T1 construct: Recombinant purified HER2 receptor composed of the ectodomain of HER2 fused to the Fc of human IgG; purchased Xcyte Therapeutics, Seattle, Wash; (provided by Dr. Che Law; a gift, not a catalogue product)
T1 sequence (P04626 23-652 limits assumed): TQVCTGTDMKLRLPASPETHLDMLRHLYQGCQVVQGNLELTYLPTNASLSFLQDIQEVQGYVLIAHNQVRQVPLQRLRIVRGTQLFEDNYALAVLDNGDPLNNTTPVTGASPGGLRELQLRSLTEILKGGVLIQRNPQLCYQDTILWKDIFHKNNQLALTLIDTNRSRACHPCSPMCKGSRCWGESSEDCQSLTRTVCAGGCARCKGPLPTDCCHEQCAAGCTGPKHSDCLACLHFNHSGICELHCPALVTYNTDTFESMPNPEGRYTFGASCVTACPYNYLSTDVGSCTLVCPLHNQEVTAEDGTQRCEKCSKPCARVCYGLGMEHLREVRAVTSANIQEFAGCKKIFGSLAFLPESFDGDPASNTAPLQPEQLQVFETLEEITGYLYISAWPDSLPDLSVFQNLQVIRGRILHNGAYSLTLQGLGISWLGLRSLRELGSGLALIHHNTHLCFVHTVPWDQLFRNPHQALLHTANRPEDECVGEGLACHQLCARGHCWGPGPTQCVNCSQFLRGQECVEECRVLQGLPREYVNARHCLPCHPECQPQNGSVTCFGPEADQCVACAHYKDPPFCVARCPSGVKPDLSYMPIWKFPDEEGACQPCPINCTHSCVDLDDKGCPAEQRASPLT
Description: Binding of AHNP has been studies by means of surface plasmon resonance (Biacore) technology. In Biacore experiments, one of the interacting molecules (termed the ligand) is immobilized on the sensor surface, and the other interactant (termed the analyte) is continuously flown over that surface in a micro-flow cell. The interaction between the ligand and the analyte are monitored using a light source that is reflected at the immobilized chip. Binding of the analyte to the immobilized ligand changes the resonance angle of the reflected light due to changes in the refractive index of the surface. The response is plotted in real time in the form of sensorgram curves. The advantage with this approach is its sensitivity, ease of use, and ability to perform experiments with few microgram quantities of proteins and peptides. In addition, the kinetic binding studies reveal association and disassociation rates of the analyte which may be more relevant for understanding the pharmacokinetics of drug-receptor interactions.
Binding experiments were performed with the surface plasmon resonance based biosensor instrument Biacore 3000 (Biacore AB, Uppsala, Sweden) at 25° C. Recombinant purified HER2 receptor composed of the ectodomain of HER2 fused to the Fc of human IgG was provided by Dr. Che Law, Xcyte Therapeutics, Seattle, Wash. Immobilization of HER2 in the sensor surface was performed following the standard amine coupling procedure according to manufacturer's instructions. Briefly, 35 pit of a solution containing 0.2M N-ethyl-N-(dimethylaminopropyl) carbodiimide (EDC) and 0.05 M N-hydroxysuccinimide (NHS) were injected at a flow rate of 5 μL/min to activate carboxyl groups on the sensor chip surface. HER2 (40 ng/mL in 10 mM NaOAc buffer, pH 5.0) was flowed over the chip surface at a flow rate of 20 μL/min until the desired level bound protein was reached. Unreacted protein was washed out and unreacted activated groups were blocked by the injection of 35 μL of 1 M ethanolamine at 5 μL/min. […] A reference surface was generated simultaneously under the same conditions but without HER2 injection and used as a blank to correct for instrument and buffer artifacts. Peptides were injected at variable concentrations at 20 μL/min flow rate and binding to the HER2 receptor immobilized on the chip was monitored in real time. Each sensorgram consists of an association phase (first 240 s), reflecting binding of the injected peptide to the receptor, followed by a dissociation phase (300 s), during which the running buffer is passed over the chip and the bound peptide is being washed off the receptor surface.

T6-17 cells = settings: for % inhibition of T6-17 cell proliferation in MTT assays: 1 μg/mL of peptides for 48 h
Method: (See reference 46 below.) HER2-expressing transformed tumor cells (T6-17) were used for this purpose. […] Each value represents an average of at least four samples.
The MTT assay has been used for measuring cell growth as previously described in ref 446. Briefly, T6-17 cells were seeded in 96-well plates overnight in DMEM containing 10% FBS (1000 per well). T6-17 is derived from NIH3T3 by overexpressing the human HER2 receptor. Cells were cultured in 100 μL of fresh medium containing 1 μg/mL of peptides for 48 h. […] A total of 25 μL of MTT solution (5 mg/mL in PBS) was added to each well, and after 2 h of incubation at 37° C., 100 μA of the extraction buffer (20% w/v of SDS, 50% N,N-dimethyl formamide, pH 4.7) were added. After an overnight incubation at 37° C., the optical density at 600 rim was measured using an ELISA reader.

[2] = system: MCF-7 parental strain (MCF/Par) p185-expressing cells; test: Combination treatment with tamoxifen, growth inhibition, MCF-7 parental; assay type: cell-based; settings: peptide 1 μg/ml plus tamoxifen
[3] = system: MCF-7/H2 p185-overexpressing cells; test: Combination treatment with tamoxifen, growth inhibition, MCF-7/H2; assay type: cell-based; settings: peptide 1 μg/ml plus tamoxifen
[4] = Biacore, immobilized HER2, 25° C., read-out: binding to HER2 KD
[5] = Biacore, immobilized HER2, 25° C., read-out: binding to HER2 koff
[6] = Biacore, immobilized HER2, 25° C.

Row | koff (HER2 receptor; [5]) | kon (HER2 receptor; [6]) | Compound | solubility [1] | solubility (in words) [1] | pKd (HER2 receptor; [4]) | also measured
1 |  |  | CSCC[C@H](NC(=O)[C@H](Cc1ccc(O)cc1)NC(=O)[C@@H]1CSSC[C@H](NC(=O)[C@@H](N)Cc2ccccc2)C(=O)N[C@@H](CC(=O)O)C(=O)NCC(=O)N[C@@H](Cc2ccccc2)C(=O)N[C@@H](Cc2ccc(O)cc2)C(=O)N[C@@H](C)C(=O)N1)C(=O)N[C@@H](CC(=O)O)C(=O)N[C@H](C(=O)O)C(C)C [Peptide 2] | < 1000 µg/mL | no improvement in solubility | 6.19 | fold increase in binding affinity for HER2 relative to the comparator peptide (HER2 receptor; 2 vs linear 9, AHNP vs 2, 3 vs AHNP): more than 5 fold; koff (HER2 receptor; read-out: binding to HER2 koff): 0.000643 s⁻¹; kon (HER2 receptor): 990 M⁻¹ s⁻¹; % inhibition of T6-17 cell proliferation in MTT assays (T6-17 cells): 22.3%
2 |  |  | CSCC[C@H](NC(=O)[C@H](Cc1ccc(O)cc1)NC(=O)[C@@H]1CSSC[C@H](NC(=O)[C@@H](N)Cc2ccccc2)C(=O)N[C@@H](CC(=O)O)C(=O)NCC(=O)N[C@@H](Cc2ccccc2)C(=O)N[C@@H](Cc2ccc(O)cc2)C(=O)N[C@@H](C)C(=O)N1)C(=O)N[C@@H](CC(=O)O)C(=O)N[C@H](C(=O)N[C@@H](CCCCN)C(N)=O)C(C)C [Peptide 5] (H-FCDGFYACYMDVK-NH2; disulfide 2-8) | < 1000 µg/mL | no improvement in solubility | 6.08 | lower receptor affinity than 7 (HER2 receptor; relative to peptide 7): 14%
3 | 0.00125 s⁻¹ | 219 M⁻¹ s⁻¹ | CC(C)[C@H](NC(=O)[C@H](CC(=O)O)NC(=O)[C@H](CCCCN)NC(=O)[C@H](Cc1ccc(O)cc1)NC(=O)[C@@H]1CSSC[C@H](NC(=O)[C@@H](N)Cc2ccccc2)C(=O)N[C@@H](CC(=O)O)C(=O)NCC(=O)N[C@@H](Cc2ccccc2)C(=O)N[C@@H](Cc2ccc(O)cc2)C(=O)N[C@@H](C)C(=O)N1)C(=O)O [Peptide 6] (H-FCDGFYACYKDV-OH; disulfide 2-8; N-terminus assumed) | > 1000 µg/mL | much higher solubility | 5.24 | fold decrease in binding affinity for HER2 (HER2 receptor; Lys-containing analogues vs parent peptide): 8.8 fold; decrease in binding affinity (HER2 receptor; Met replaced with Lys): about 1 order of magnitude
4 | 0.000808 s⁻¹ | 1110 M⁻¹ s⁻¹ | CSCC[C@H](NC(=O)[C@H](Cc1ccc(O)cc1)NC(=O)[C@@H]1CSSC[C@H](NC(=O)[C@H](Cc2ccccc2)NC(=O)CN)C(=O)N[C@@H](CC(=O)O)C(=O)NCC(=O)N[C@@H](Cc2ccccc2)C(=O)N[C@@H](Cc2ccc(O)cc2)C(=O)N[C@@H](C)C(=O)N1)C(=O)N[C@@H](CC(=O)O)C(=O)N[C@H](C(=O)O)C(C)C [Peptide 7] (H-GFCDGFYACYMDV-OH; disulfide 3-9) | > 1000 µg/mL | increased solubility; also recorded: good solubility | 6.14 | 
5 | 0.000701 s⁻¹ | 922 M⁻¹ s⁻¹ | CSCC[C@H](NC(=O)[C@H](Cc1ccc(O)cc1)NC(=O)[C@@H]1CSSC[C@H](NC(=O)[C@@H](N)Cc2ccccc2)C(=O)NCC(=O)N[C@@H](CC(=O)O)C(=O)NCC(=O)N[C@@H](Cc2ccccc2)C(=O)N[C@@H](Cc2ccc(O)cc2)C(=O)N[C@@H](C)C(=O)N1)C(=O)N[C@@H](CC(=O)O)C(=O)N[C@H](C(=O)O)C(C)C [Peptide 8] (H-FCGDGFYACYMDV-OH; disulfide 2-9; N-terminus assumed) | > 1000 µg/mL | much higher solubility |  | 
6 |  |  | CSCC[C@H](NC(=O)[C@H](Cc1ccc(O)cc1)NC(=O)[C@H](CS)NC(=O)[C@H](C)NC(=O)[C@H](Cc1ccc(O)cc1)NC(=O)[C@H](Cc1ccccc1)NC(=O)CNC(=O)[C@H](CC(=O)O)NC(=O)[C@H](CS)NC(=O)[C@@H](N)Cc1ccccc1)C(=O)N[C@@H](CC(=O)O)C(=O)N[C@H](C(=O)O)C(C)C [Peptide 9] | > 1000 µg/mL | much higher solubility |  | pKd (HER2 receptor): 5.45; koff (HER2 receptor; read-out: binding to HER2 koff): 0.00106 s⁻¹; kon (HER2 receptor): 298 M⁻¹ s⁻¹; % inhibition of T6-17 cell proliferation in MTT assays (T6-17 cells): 12.8%
7 |  |  | FCGDGFYACYMDV-NH2 (disulfide 2-9 (inferred)) [SEQ ID NO: 143] |  |  |  | growth inhibition in combination with tamoxifen (in words) [2]: enhanced in vitro inhibition of proliferation; growth inhibition in combination with tamoxifen (in words) [3]: enhanced in vitro inhibition of proliferation

Row | Compound | koff (HER2 receptor; [5]) | kon (HER2 receptor; [6]) | solubility [1] | solubility (in words) [1] | pKd (HER2 receptor; [4]) | also measured
8 | CSCC[C@H](NC(=O)[C@H](Cc1ccc(O)cc1)NC(=O)[C@@H]1CSSC[C@H](NC(=O)[C@@H](N)Cc2ccc(O)cc2)C(=O)N[C@@H](CC(=O)O)C(=O)NCC(=O)N[C@@H](Cc2ccccc2)C(=O)N[C@@H](Cc2ccc(O)cc2)C(=O)N[C@@H](C)C(=O)N1)C(=O)N[C@@H](CC(=O)O)C(=O)N[C@H](C(N)=O)C(C)C [Peptide 3] (H-YCDGFYACYMDV-NH2; disulfide 2-8; N-terminus assumed) | 0.000294 s⁻¹ | 1960 M⁻¹ s⁻¹ | < 1000 µg/mL |  |  | growth inhibition in combination with tamoxifen (in words) [2]: enhanced growth inhibition; growth inhibition in combination with tamoxifen (in words) [3]: enhanced growth inhibition; koff (HER2 receptor; Biacore, immobilized HER2, read-out: koff): 0.000294 s⁻¹; pKd (HER2 receptor; Biacore, read-out: receptor-binding affinity KD): 6.82; biological activity in the MTT assay relative to comparator (in words) (T6-17 cells; T6-17 cells): almost twice the activity of AHNP
9 | CSCC[C@H](NC(=O)[C@@H](Cc1ccc(O)cc1)NC(=O)[C@@H]1CSSC[C@H](NC(=O)[C@H](N)Cc2ccccc2)C(=O)N[C@@H](CC(=O)O)C(=O)NCC(=O)N[C@@H](Cc2ccccc2)C(=O)N[C@@H](Cc2ccc(O)cc2)C(=O)N[C@@H](C)C(=O)N1)C(=O)N[C@@H](CC(=O)O)C(=O)N[C@H](C(N)=O)C(C)C [Peptide 4] | 0.000603 s⁻¹ | 1720 M⁻¹ s⁻¹ | > 1000 µg/mL | much higher solubility | 6.46 | 
